According to ChEMBL document CHEMBL1128348, “Potent non-peptide fibrinogen receptor antagonists which present an alternative pharmacophore” (J Med Chem, 1995):

Tests used:
[1] = target: Integrin alpha-IIb/beta-3 (Homo sapiens, UniProt P05106+P08514); experiment: Inhibition of [3H]-SKF- 107260 binding to purified alphaIIb-beta3 integrin of human platelets
Homo sapiens = species: Homo sapiens; experiment: Antiaggregatory activity against human platelet-rich plasma induced by ADP; assay type: functional, organism-based

Chain of Integrin alpha-IIb/beta-3 (P05106 27-788 limits assumed): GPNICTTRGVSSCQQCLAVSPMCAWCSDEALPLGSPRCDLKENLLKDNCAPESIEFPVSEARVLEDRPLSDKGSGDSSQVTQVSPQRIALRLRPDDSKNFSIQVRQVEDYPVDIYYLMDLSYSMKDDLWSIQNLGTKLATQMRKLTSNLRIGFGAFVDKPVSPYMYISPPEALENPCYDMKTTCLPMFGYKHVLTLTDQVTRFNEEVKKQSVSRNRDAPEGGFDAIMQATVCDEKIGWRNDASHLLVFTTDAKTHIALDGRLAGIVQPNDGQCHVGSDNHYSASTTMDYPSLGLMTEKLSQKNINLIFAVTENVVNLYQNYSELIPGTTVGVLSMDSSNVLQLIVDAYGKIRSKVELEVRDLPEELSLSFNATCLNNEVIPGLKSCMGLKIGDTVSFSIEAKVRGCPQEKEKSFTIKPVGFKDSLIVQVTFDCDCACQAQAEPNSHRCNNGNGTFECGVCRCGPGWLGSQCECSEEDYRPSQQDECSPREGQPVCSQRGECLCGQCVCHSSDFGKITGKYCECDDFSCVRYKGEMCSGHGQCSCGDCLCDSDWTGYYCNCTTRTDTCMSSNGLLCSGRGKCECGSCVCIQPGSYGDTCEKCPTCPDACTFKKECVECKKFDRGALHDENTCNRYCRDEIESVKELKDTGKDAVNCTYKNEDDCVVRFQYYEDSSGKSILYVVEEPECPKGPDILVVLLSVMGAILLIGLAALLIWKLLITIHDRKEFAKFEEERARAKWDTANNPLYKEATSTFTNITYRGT
Chain of Integrin alpha-IIb/beta-3 (P08514 32-887 limits assumed): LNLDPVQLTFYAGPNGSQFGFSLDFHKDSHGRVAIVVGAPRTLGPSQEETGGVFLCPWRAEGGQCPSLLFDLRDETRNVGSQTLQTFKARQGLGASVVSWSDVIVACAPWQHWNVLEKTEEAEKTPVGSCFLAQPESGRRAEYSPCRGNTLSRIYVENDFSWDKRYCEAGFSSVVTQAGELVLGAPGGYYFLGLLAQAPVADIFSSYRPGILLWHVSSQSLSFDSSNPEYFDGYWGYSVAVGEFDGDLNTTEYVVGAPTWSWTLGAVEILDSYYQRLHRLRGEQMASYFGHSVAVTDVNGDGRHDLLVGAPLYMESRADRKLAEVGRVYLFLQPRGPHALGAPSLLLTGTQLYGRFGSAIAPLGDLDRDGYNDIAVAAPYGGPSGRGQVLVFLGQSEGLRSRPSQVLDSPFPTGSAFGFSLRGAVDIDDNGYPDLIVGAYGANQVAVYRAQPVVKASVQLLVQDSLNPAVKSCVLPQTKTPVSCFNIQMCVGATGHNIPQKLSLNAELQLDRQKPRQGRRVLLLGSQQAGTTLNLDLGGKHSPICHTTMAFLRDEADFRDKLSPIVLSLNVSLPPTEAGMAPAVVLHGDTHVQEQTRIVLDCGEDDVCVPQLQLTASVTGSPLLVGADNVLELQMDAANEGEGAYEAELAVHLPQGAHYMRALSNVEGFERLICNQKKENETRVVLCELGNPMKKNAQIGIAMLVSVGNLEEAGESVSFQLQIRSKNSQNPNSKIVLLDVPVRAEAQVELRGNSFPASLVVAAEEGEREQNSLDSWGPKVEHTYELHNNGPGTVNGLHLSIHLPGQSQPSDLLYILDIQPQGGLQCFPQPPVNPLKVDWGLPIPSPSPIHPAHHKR
Chain of Integrin alpha-IIb/beta-3 (P08514 891-1039 limits assumed): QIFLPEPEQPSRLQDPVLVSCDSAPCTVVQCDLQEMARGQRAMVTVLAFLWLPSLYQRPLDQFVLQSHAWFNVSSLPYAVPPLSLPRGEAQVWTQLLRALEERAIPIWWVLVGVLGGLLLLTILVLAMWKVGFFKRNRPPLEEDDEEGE

| Compound | Ki [1] | IC50 (Homo sapiens) |
| --- | --- | --- |
| N=C(N)c1ccc(NC(=O)c2ccc3c(c2)NC(CC(=O)O)C(=O)N(CCc2ccccc2)C3)cc1 (configuration not stated) | 2.3 nM | 150 nM |
| N=C(N)NCCC[C@@H]1NC(=O)[C@@H]2CCCN2C(=O)[C@H]2CCCN2C(=O)CNC(=O)[C@H](CC(=O)O)NC(=O)CNC1=O | 1900 nM | 5260 nM |
| N=C(N)c1ccc(NC(=O)c2ccc3c(c2)CN(CCc2ccccc2)C(=O)C(CC(=O)O)N3)cc1 (configuration not stated) | 26 nM | 380 nM |
| CN1C(=O)c2ccccc2SSc2ccccc2NC(=O)[C@H](CC(=O)O)NC(=O)CNC(=O)[C@@H]1CCCN=C(N)N [SKF-107260] |  | 90 nM |
